This note sets out measurements from ChEMBL document CHEMBL1143710, “Synthesis, antifungal and antimicrobial activity of alkylphospholipids” (Bioorg Med Chem, 2007).

In data set [1] the test system is Cryptococcus neoformans. Briefly: Antifungal activity against Cryptococcus neoformans ATCC 90112. It counts as functional.
In data set [2] the target is T1, Phospholipase B (Cryptococcus neoformans) (UniProt Q9P8P2).
T1 sequence (whole entry): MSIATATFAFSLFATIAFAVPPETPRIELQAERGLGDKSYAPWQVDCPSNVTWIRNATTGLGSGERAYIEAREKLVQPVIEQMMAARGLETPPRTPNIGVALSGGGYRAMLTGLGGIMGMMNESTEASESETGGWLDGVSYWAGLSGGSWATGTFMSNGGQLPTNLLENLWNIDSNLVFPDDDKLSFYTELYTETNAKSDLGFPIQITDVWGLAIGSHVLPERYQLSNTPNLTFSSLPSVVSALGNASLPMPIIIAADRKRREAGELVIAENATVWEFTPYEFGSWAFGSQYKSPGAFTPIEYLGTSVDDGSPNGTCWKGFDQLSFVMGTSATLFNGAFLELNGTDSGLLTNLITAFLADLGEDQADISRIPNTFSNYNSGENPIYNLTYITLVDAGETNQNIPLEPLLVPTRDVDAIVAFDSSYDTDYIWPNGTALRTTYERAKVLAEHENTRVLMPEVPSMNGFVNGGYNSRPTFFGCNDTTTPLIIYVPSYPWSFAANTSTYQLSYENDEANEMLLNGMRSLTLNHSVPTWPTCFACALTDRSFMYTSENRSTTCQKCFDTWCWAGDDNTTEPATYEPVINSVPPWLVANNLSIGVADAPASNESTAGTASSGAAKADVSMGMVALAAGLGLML
Briefly: Inhibition of phospholipase B activity of Cryptococcus neoformans var. grubi H99 secreted PLB1 by radiometric assay method.

The subject of data set [3] is Candida albicans. Briefly: Antifungal activity against Candida albicans ATCC 10231. The class given is functional.
The target of data set [4] is T1, Phospholipase B (Cryptococcus neoformans). Briefly: Inhibition of […] activity of Cryptococcus neoformans var. grubi H99 secreted PLB1 at 25 uM by radiometric assay method.
Data set [5] in a line: Toxicity assessed as haemolytic activity against human erythrocytes at 175 uM. It counts as cell-based, Erythrocyte. Particulars: read-out: Activity.
Data set [6] in a line: Toxicity assessed as haemolytic activity against human erythrocytes at 88 uM. It counts as cell-based, Erythrocyte. The following applies: read-out: Activity.
The nature of data set [7]: Toxicity assessed as haemolytic activity against human erythrocytes at 44 uM. It counts as cell-based, Erythrocyte. The following applies: read-out: Activity.
A short description of data set [8]: Toxicity assessed as haemolytic activity against human erythrocytes at 17.5 uM. It counts as cell-based, Erythrocyte. Particulars: read-out: Activity.
The nature of data set [9]: Toxicity assessed as haemolytic activity against human erythrocytes at 3.5 uM. The class given is cell-based, Erythrocyte. Particulars: read-out: Activity.
Data set [10] relates to Escherichia coli. Briefly: Antibacterial activity against Escherichia coli ATCC 25922 after 24 hrs. It counts as functional. Particulars: ATCC 25922, 24 h.
Data set [11] has as its system Staphylococcus aureus. Briefly: Antibacterial activity against Staphylococcus aureus ATCC 25923 after 24 hrs. The class given is functional. Particulars: ATCC 25923, 24 h.
The subject of data set [12] is Staphylococcus aureus. Briefly: Antibacterial activity against methicillin-resistant Staphylococcus aureus after 24 hrs. It counts as functional.
For data set [13], the system named is Enterococcus. Briefly: Antibacterial activity against vancomycin-resistant Enterococcus ATCC 51299 after 24 hrs. The class given is functional. The following applies: ATCC 51299, 24 h.
The target in data set [14] is T1, Phospholipase B (Cryptococcus neoformans). Briefly: Inhibition of […] activity of Cryptococcus neoformans var. grubi H99 secreted PLB1 at 250 uM by radiometric assay method.
The target is the same in data set [15]. Briefly: Inhibition of lysophosphatidic acid acyltransferase activity of Cryptococcus neoformans var. grubi H99 secreted PLB1 at 250 uM by radiometric assay method.
Data set [16] has the same target. Briefly: Inhibition of lysophosphatidic acid acyltransferase activity of Cryptococcus neoformans var. grubi H99 secreted PLB1 at 25 uM by radiometric assay method.
The nature of data set [17]: Toxicity assessed as haemolytic activity against human erythrocytes at 350 uM. It counts as cell-based, Erythrocyte. The following applies: read-out: Activity.
For data set [18], the system named is Streptococcus pneumoniae. Briefly: Antibacterial activity against Streptococcus pneumoniae ATCC 46919 after 24 hrs. It counts as functional. Particulars: ATCC 46919, 24 h.
The test system of data set [19] is Pseudomonas aeruginosa. Briefly: Antibacterial activity against Pseudomonas aeruginosa ATCC 27853 after 24 hrs. The following applies: ATCC 27853, 24 h. It counts as functional.

≈ marks a conversion by molar mass, not a printed value. Calls of active or inactive are those of the source. The rule behind the calls is not given here.

For the compound `CCCCCCCCCNC(=O)CCCCCOP(=O)([O-])OCC[N+](C)(C)C`, the minimal inhibitory concentration (MIC) in data set [1], in data set [3], in data set [10], in data set [11], in data set [12] and in data set [13] was above 350 µM in each case. Also, the result in data set [2] and in [4] was inactive. Moreover, the hemolysis at 175 µM in data set [5] amounted to 0%. Also, the hemolysis at 88 µM in data set [6] is 0%. Besides, the hemolysis at 44 µM in data set [7] was 0%. In [8], the hemolysis at 17.5 µM was determined as 0%. In data set [9], the hemolysis at 3.5 µM was 0%.

Take `CCCCCCCCCCCCCCCCOP(=O)([O-])OCC[N+](C)(C)C` [MILTEFOSINE]: the MIC is 2.75 µM (≈ 1.12 µg/mL) in [1]; 5.5 µM (≈ 2.24 µg/mL) in [3]; above 350 µM in data set [10]; 44 µM (≈ 17.9 µg/mL) in data set [11]; 22 µM (≈ 8.97 µg/mL) in data set [12]; 44 µM (≈ 17.9 µg/mL) in [13]. Also, the MIC in data set [18] was 11 µM (≈ 4.48 µg/mL); in [19] it was above 600 µM. For the same compound, the result in data set [14], in data set [15] and in [16] was Active. Besides, the result in data set [4] was inactive. Moreover, the hemolysis at 350 µM in data set [17] stood at 100%. Moreover, the hemolysis at 175 µM in data set [5] amounted to 95%. Also, the hemolysis at 88 µM in data set [6] was 25%. For the same compound, the hemolysis at 44 µM in data set [7] turned out to be 5%. Moreover, in [8], the hemolysis at 17.5 µM came to 0%. For the same compound, the hemolysis at 3.5 µM in data set [9] was 0%.

In general, MIC refers to the lowest concentration that inhibits growth of the organism.
